Our source for the IC50 and GI50 values is patent US20240262795A1, “PYRAZINE COMPOUNDS AS INHIBITORS OF FLT3” (Biomea Fusion, Inc., priority 2021, published 2024).

One assay concerns K-562. As to the kind of experiment: Proliferation inhibition, CellTiter-Glo, K-562. It is filed as cell-based, human. The note with it: Homo sapiens, K562, 96 h; K-562 cells, IC50 (4 days), CellTiter-Glo; read-out: K-562 IC50. An outline of the steps: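 About 10,000 cells per well in RPMI-1640 with 10% FBS. Compounds added 2 h after seeding at eight concentrations in duplicate (0.2% DMSO as 100% proliferation), then incubated ~96 h at 37° C, 5% CO2. ATP measured by CellTiter-Glo luminescence; IC50 from four-parameter logistic fit.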

Assay [1] addresses T1, Ba/F3 cell lines stably expressing human FLT3-ITD-D835Y (Homo sapiens, UniProt P36888, D835Y, cells depend on it, form not given).
T1 construct: Ba/F3-FLT3-ITD-D835Y Relative IC50
T1 sequence (P36888 1-993 D835Y): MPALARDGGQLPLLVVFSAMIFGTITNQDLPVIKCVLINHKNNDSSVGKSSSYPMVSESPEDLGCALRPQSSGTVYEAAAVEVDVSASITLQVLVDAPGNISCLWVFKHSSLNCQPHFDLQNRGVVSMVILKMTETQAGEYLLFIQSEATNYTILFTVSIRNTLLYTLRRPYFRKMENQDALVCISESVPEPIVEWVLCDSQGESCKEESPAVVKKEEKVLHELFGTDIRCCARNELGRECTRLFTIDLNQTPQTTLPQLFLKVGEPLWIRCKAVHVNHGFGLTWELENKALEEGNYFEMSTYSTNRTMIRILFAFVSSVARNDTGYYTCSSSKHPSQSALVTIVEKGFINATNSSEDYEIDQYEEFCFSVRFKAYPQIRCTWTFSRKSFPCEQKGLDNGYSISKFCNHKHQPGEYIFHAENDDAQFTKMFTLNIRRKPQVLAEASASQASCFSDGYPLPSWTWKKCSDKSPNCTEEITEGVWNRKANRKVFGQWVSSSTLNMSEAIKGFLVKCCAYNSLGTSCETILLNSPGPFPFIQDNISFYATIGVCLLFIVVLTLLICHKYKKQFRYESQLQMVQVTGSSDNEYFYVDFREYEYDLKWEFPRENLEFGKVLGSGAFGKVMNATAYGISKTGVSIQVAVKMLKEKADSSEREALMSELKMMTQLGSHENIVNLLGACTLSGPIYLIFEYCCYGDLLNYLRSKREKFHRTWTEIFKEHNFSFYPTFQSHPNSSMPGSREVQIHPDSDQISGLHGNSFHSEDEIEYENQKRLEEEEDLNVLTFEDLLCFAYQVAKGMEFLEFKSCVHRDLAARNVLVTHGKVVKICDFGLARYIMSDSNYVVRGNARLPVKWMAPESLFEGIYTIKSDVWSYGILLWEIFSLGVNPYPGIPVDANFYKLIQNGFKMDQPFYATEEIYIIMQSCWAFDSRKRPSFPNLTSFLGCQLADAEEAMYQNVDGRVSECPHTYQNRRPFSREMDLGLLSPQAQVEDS
Description: FLT3 mutant assay, cell viability, Ba/F3-FLT3-ITD-D835Y. The assay is classed as cell-based, mouse. The note with it: IC50 (3 days), CellTiter-Glo; read-out: Ba/F3-FLT3-ITD-D835Y Relative IC50. The method, then: Activity of compounds on FLT3 activating mutations were assessed using Ba/F3 cell lines (mouse pro-B cell line) stably expressing human FLT3-ITD, FLT3-ITD-D835Y or FLT3-ITD-F691L. […] The supernatant collected were concentrated with PEG8000 and used to infect Ba/F3 cells at 1-5 MOI in serum-free media with polybrene. Infected Ba/F3 cells were selected in presence of puromycin, and surviving cells verified by sequencing and/or protein detection assay. Constitutive expression of the activating kinase transforms the Ba/F3 cells into IL-3-independent growth allowing them to be cultured in the absence of IL-3. […] For use in compound testing, cells in exponential growth phase were harvested, counted, and resuspended at the required cell density. Cell viability assays were performed in 96-well assay plates and 90 μL of cell suspension seeded per well. Serial dilutions of the test compounds and assay controls and were freshly prepared for the assay. Nine-point 3× serial dilutions were prepared in 100% DMSO (400× stock) and subsequently diluted in cell culture media to obtain 10× stocks. Ten microliters of the 10× stock serial dilutions were added to the appropriate wells (triplicate wells per condition) in the assay plate. […] Assay plates were incubated for 3 days in at 37° C. in a humidified incubator with 5% CO2.
Inhibition rate (IR) of the tested compounds was determined by the following formula: IR (%)=(1−(RLU compound−RLU blank)/(RLU control−RLU blank))*100%. The inhibitions of different dose of compound were calculated in Excel file, and the dose responses were analysed using GraphPad Prism to evaluate related parameters, such as Bottom, Top and IC50. For the IC50 analysis by GraphPad Prism, the equation below was used to fit curve: Y=Bottom+(Top−Bottom)/(1+10^((LogIC50−X)*HillSlope))

As to `Cc1nc(C(N)=O)c(Nc2cccc(CCNC(=O)CN(C)C(=O)/C=C/CN(C)C)c2)nc1N(C)C(C)C` [Compound 250, (E)-3-((3-(2-(2-(4-(dimethylamino)-N-methylbut-2-enamido)acetamido)ethyl)phenyl)amino)-5-(isopropyl(methyl)amino)-6-methylpyrazine-2-carboxamide], the IC50 (commonly the concentration needed to halve the response being measured) in the assay with K-562 was above 500 nM. Also, the GI50 in assay [1] lay within 10 to 100 nM.
Regarding `CCc1nc(C(N)=O)c(Nc2cccc(CCNC(=O)CN(C)C(=O)/C=C/CN(C)C)c2)nc1C1CC1` [Compound 219, (E)-5-cyclopropyl-3-((3-(2-(2-(4-(dimethylamino)-N-methylbut-2-enamido)acetamido)ethyl)phenyl)amino)-6-ethylpyrazine-2-carboxamide], the IC50 in the assay with K-562 is above 500 nM. Besides, in assay [1], the GI50 fell in the range of 10 to 100 nM.
